Data taken from patent US20080311126A1, “Antisense Oligonucleotides Directed to Ribonucleotide Reducatase R2 and Uses Thereof in Combination Therapies for the Treatment of Cancer” (Genesense Technologies, Inc, priority 2004, published 2008).

Legend:
Format in all cases: in vivo
[1] = tested on: A498 human renal carcinoma; assay: A498 renal tumour xenograft in SCID mice, SEQ ID NO:1 and interferon alpha
Procedure: Cell line: Human renal carcinoma cell line (A498) was grown as monolayer culture in Minimum essential medium (α-MEM) supplemented with 10% fetal bovine serum (FBS), 0.1 mM non-essential amino acid, 1.0 mM sodium pyruvate, 100 U/ml penicillin, 100 μg/ml streptomycin and 0.25 μg/ml amphotericin B and 2 mM L-alanyl-1-glutamine at 37° C. in an atmosphere of 5% CO2 in air. The tumour cells were routinely subcultured twice weekly by trypsin-EDTA treatment. The cells were harvested from subconfluent logarithmically growing culture by treatment with trypsin-EDTA and counted for tumour inoculation.
Tumour Inoculation: An acclimation period of at least 7 days was allowed between animal receipt and commencement of tumour inoculation. When the female SCID mice were 6-7 weeks of age (20-25 g), each mouse was subcutaneously injected with 9×10^6 A498 human renal carcinoma cells in 0.1 ml of PBS at the right flank of the mice to induce tumour growth.
Dose Preparation and Treatment: The dose for SEQ ID NO:1 was formulated using the following procedure. From a concentrated stock solution (usually prepared in ddH2O at a concentration of 50 mg/ml and kept at −80° C.), SEQ ID NO:1 was diluted with saline to achieve a final target concentration of 1 or 2.5 mg/ml on the first day of dosing. Enough SEQ ID NO:1 was diluted so that the compound could be administered by bolus infusion into the tail vein every other day for the duration of the experiment. Recombinant interferon alfa-2b (ntron A™) was employed according to the dose and treatment schedules below. The treatments were started 20 days after the tumour cell inoculation when the tumour size reached an approximate volume of 200 mm^3. Each treatment group contained 10 tumour-bearing mice. Routes of administration are as follows: intravenous (i.v.) and intratumoural (i.t.).
• 1. Saline treated group-1: saline 0.1 ml/mouse/48 hours, i.v., n=10 • 2. Saline treated group-2: saline 0.05 ml/mouse/5 days/week, i.t., n=10 • 3. SEQ ID NO:1 treated group: 1 mg/kg/48 hours in 0.1 ml saline, i.v. n=10 • 4. SEQ ID NO:1 treated group: 2.5 mg/kg/48 hours in 0.1 ml saline, i.v., n=10 • 5. […]
Treatment started from day 20 after inoculation of human renal tumour cells. […]
Endpoints: The effects of SEQ ID NO:1 and Intron A on tumour growth was determined. Tumour sizes were measured every week from day 20 after the tumour cell inoculation in two dimensions using a caliper, and the volume was expressed in mm^3 using the formula: V=0.5 a×b^2, where a and b are the long and short diameters of the tumour, respectively. Mean tumour volumes calculated from each measurement were then plotted in a standard graph to compare the anti-tumour efficacy to that of controls. A day after the last treatment, tumours were excised from the animals and their weights were measured. […]

[2] = tested on: PC-3 human prostatic cancer cells; assay: PC-3 prostatic tumour xenograft in SCID mice; settings: FIG. 14A; SEQ ID NO:1 10 mg/kg 18 times; mitoxantrone 2 mg/kg once
Procedure: In both experiments, PC-3 human prostatic cancer cells (1×10^7 cells in 100 μl of PBS) were subcutaneously injected into the right flank of 6-7 weeks old male SCID mice. After the size of tumour reached an approximate volume of 50 mm^3, 14 days post tumour cell injection, SEQ ID NO:1 was administered by bolus infusion into the tail vein every other day at 10 mg/kg 18 times (FIG. 14A) or 17 times (FIG. 14B), respectively. Control animals received saline alone for the same period. Antitumour effect of SEQ ID NO:1 was further compared to that of mitoxantrone (Novantrone®) alone or in combination. Mitoxantrone was administered intravenously once at the beginning of the treatments at a dose of 2 mg/kg (FIG. 14A) or once a week for four weeks at a reduced dose of 0.8 mg/kg (FIG. 14B). All treatments were stopped at day 50 (FIG. 14A) or 48 (FIG. 14B), respectively. A day after the last treatment, tumours were excised from the animals and their weights were measured.

[3] = tested on: DU145 human prostatic cancer cells; assay: DU145 prostatic tumour xenograft in SCID mice
Procedure: In both experiments, DU145 human prostatic cancer cells (1×10^7 cells in 100 μl of PBS) were subcutaneously injected into the right flank of 6-7 weeks old male SCID mice. After the size of tumour reached an approximate volume of 50 mm^3, 13 FIG. 15A) or 11 (FIG. 15B) days post tumour cell injection, SEQ ID NO:1 was administered by bolus infusion into the tail vein every other day at 10 mg/kg 15 times (FIG. 15A) or 14 times (FIG. 15B), respectively. Control animals received saline alone for the same period. Antitumour effect of SEQ ID NO:1 was further compared to that of mitoxantrone (Novantrone®) alone or in combination. Mitoxantrone was administered intravenously once at the beginning of the treatments at a dose of 2 mg/kg (FIG. 15A) or once a week for four weeks at a reduced dose of 0.8 mg/kg (FIG. 15B). All treatments were stopped at day 42 (FIG. 15A) or 38 (FIG. 15B); respectively. A day after the last treatment, tumours were excised from the animals and their weights were measured.

[4] = tested on: Human Colon Adenocarcinoma; assay: Tumour growth assay, human colon adenocarcinoma in CD-1 nude mice
[5] = tested on: Human Breast Adenocarcinoma; assay: Tumour growth assay, human breast adenocarcinoma in mice
Human Renal Carcinoma = assay: Tumour growth assay, human renal carcinoma in mice

## GGCTAAATCGCTCCACCAAG (chemistry not given here) [SEQ ID NO: 1, antisense oligonucleotide that hybridizes to the coding region of human ribonucleotide reductase R2 mRNA]
[1]; Example 6, SEQ ID NO:1 1 or 2.5 mg/kg/48 hours i.v., Intron A 10^3 or 10^5 unit 5 days/week i.t.
  anti-tumour efficacy (tumour volume, tumour weight): significant anti-tumour efficacy
[1]; Example 7, SEQ ID NO:1 2.5 mg/kg/2ds i.v., 10000 units Intron A x5/week for 2 weeks i.t.
  anti-tumour efficacy (tumour volume, tumour weight): significant anti-tumour efficacy
[2]
  antitumour effect (tumour weight): significant delay of tumour growth
[3]; DU145 (prostatic), Mouse SCID, second of two value columns (two independent experiments)
  Tumour weight as % of saline control: 41%
[3]; FIG. 15A, SEQ ID NO:1 10 mg/kg 15 times, mitoxantrone 2 mg/kg once
  antitumour effect (tumour weight): significant delay of tumour growth
[4]; CD-1 nude mice, Day 18 after tumour implantation
  Inhibition of tumour size: mice by approximately 80% on Day 18
[4]; CD-1 nude mice, doses of 1.0 to 6.0 mg/kg
  dose dependence of decrease in tumour weight: Dose-dependent decrease in tumour
[4]; Human Colon Adenocarcinoma
  Inhibition of tumour weight: approximately 80%
[5]; Day 31 after tumour implantation
  Inhibition of tumour weight: approximately 80% on Day 31 after
[5]; Human Breast Adenocarcinoma
  Inhibition of tumour size: approximately 80%
Human Renal Carcinoma; Human Renal Carcinoma (first entry)
  Inhibition of tumour size: Approximately 90% inhibition of
Human Renal Carcinoma; Human Renal Carcinoma^2 (second entry)
  Inhibition of tumour size: Approximately 97% inhibition of
